{"source": "patent EP2848693A1", "about": "“Concatenation of halogenated alkenyl diphosphate derivatives” (LANXESS Deutschland GmbH, priority 2013, dated 2015)", "format_in_all_cases": "biochemical", "key": {"[1]": {"biological_target": "T1, Thermococcus kodakaraensis cis-Prenyltransferase (ThkCPT) (Thermococcus kodakarensis, UniProt Q5JGE1)", "T1 construct": "made in house; host or cells: E. coli", "T1 sequence (Q5JGE1 1-264)": "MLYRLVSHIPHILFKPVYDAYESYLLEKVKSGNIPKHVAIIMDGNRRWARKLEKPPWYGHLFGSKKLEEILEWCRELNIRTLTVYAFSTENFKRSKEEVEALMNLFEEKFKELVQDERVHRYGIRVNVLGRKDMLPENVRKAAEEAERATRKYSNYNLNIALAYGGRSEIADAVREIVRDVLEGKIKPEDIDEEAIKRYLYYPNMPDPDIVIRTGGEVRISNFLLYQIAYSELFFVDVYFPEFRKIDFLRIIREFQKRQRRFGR", "experiment": "MTP phosphate detection assay (diphosphate release, BIOMOL Green), substrate kinetics", "details": "elongation substrate varied, starter FPP 10 µM, room temperature", "procedure": "(§1) Cis-Prenyltransferasen entlassen während der Reaktion Diphosphat nach jedem Kondensationsschritt. Dies ist der Ansatzpunkt, der gewählt wurde, um unabhängig von der Art des Produktes den Grundumsatz zu detektieren. […] Die Dreifachbestimmungen der Enzymreaktionen wurden mit 100 µL BIOMOL Green™ Detektionsreagenz gestoppt und nach weiteren 20 min in einem Mikrotiterplattenspektrophotometer bei 620 nm gemessen. Zur Kontrolle erfolgte für jede Substratkonzentration eine Messung mit denaturiertem Enzym zu den unterschiedlichen Zeitpunkten um Selbsthydrolyse der Substrate zu berücksichtigen. Zur Quantifizierung wurde eine Pi-Standardkurve in Doppelbestimmung mitgeführt. Die Verdünnung des KPi-Standards erfolgte in Assaypuffer, wurde mit 100 µL BIOMOL Green™ Detektionsreagenz nach Ablauf der Enzymreaktion in den Test-Wells detektiert und zeitgleich nach weiteren 20 min bei 620 nm gemessen. Eine lineare Beziehung zwischen A620 nm und Pi-Konzentration ermöglichte eine Quantifizierung zwischen 80 µM-0 µM Pi.\n(§2) Die Bestimmung der FPP-Kinetiken der EcUPPS sowie der ThkCPT erfolgte unter analogen Bedingungen der Bestimmung von IPP. […] Die Enzymreaktion wurde nach 60 s, 120 s, 180 s, 300 s, 600 s, 900 s oder 1200 s durch Zugabe von 100 µL BIOMOL Green™ Detektionsreagenz gestoppt und wie oben beschrieben gemessen.\n(§3) Die Assaybedingungen wurden wie in Beispiel 3 beschriebenen gewählt. […] Variation von 500 - 0 µM im Fall der Elongationssubstrate erfolgte konstant mit 10 µM FPP (jedes Homoallyldiphosphat möglich).\n(§4) Zur Berechnung der Umsatzraten in nkat·mg^-1 wurde verwendet: ν0 = ((A620-ABlank)⋅1000)/(2⋅m⋅t⋅[E]) [formula] v0 Anfangsgeschwindigkeit der Diphosphathydrolyse (nkat·mg^-1) A620 Absorption bei 620 nm ABlank Absorption der Kontrolle bei 620 nm m Anstieg der Phosphatstandardkurve (µM^-1) t Dauer der Enzymreaktion (s) [E] Enzymkonzentration (mg·L^-1)\n(§5) Die Auswertung erfolgte durch nicht-lineare Regression nach der Hill-Gleichung mit Sigma-Plot 11. […] Substratkonzentration (µM) h Hill-Koeffizient"}, "[2]": {"biological_target": "T2, E. coli Undecaprenyldiphosphatsynthase (EcUPPS) (Escherichia coli, UniProt P60472)", "T2 construct": "made in house; host or cells: E. coli", "T2 sequence (P60472 1-253)": "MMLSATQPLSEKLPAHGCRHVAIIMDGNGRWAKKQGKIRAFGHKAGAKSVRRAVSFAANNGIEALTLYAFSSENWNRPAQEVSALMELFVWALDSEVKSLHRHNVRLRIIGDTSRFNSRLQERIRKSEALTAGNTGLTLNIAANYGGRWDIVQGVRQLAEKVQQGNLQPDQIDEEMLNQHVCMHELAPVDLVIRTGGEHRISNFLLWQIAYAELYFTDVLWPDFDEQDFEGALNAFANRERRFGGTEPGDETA", "experiment": "MTP phosphate detection assay (diphosphate release, BIOMOL Green), substrate kinetics", "details": "elongation substrate varied, starter FPP 10 µM", "procedure": "as §1, §2, §3, §4, §5"}, "[3]": {"biological_target": "T3, MtUPPS (Mycobacterium tuberculosis, UniProt P9WFF7)", "T3 construct": "poly-Histidin-Tag (His6) (N); made in house; host or cells: E. coli BL21 (DE3)", "T3 sequence (P9WFF7 whole entry)": "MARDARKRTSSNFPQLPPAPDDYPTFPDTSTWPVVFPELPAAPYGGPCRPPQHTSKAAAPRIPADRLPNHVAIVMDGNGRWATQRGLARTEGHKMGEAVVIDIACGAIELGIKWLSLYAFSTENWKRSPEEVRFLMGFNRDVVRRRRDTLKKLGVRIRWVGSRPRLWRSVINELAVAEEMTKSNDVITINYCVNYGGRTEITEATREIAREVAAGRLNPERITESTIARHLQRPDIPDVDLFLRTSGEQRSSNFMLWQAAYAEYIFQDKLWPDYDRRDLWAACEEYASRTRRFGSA", "experiment": "Prenyltransferase activity test, conversion of FPP with elongation substrate (MTP phosphate detection assay)", "details": "5 µM E,E-FPP, 200 µM elongation substrate, 50 µM enzyme, room temperature", "procedure": "(§6) Die Aktivität der Prenyltransferasen wurde hinsichtlich der Umsetzung von Farnesyldiphosphat (FPP) als Startersubstrat und Isopentenyldiphosphat (IPP), und Cl-BPP bzw. Br-BPP mit Hilfe des MTP-Phosphatdetektionsassays bestimmt.\n(§7) Cl-BPP und jeweils 50 µM Enzym bei Raumtemperatur durchgeführt. […] Cl-BPP gezeigt werden. Als Negativkontrolle diente ein Ansatz ohne Enzym (nicht gezeigt)."}, "[4]": {"biological_target": "T4, HpUPPS (Helicobacter pylori, UniProt P55984)", "T4 construct": "poly-Histidin-Tag (His6) (N); made in house; host or cells: E. coli BL21 (DE3)", "T4 sequence (P55984 whole entry)": "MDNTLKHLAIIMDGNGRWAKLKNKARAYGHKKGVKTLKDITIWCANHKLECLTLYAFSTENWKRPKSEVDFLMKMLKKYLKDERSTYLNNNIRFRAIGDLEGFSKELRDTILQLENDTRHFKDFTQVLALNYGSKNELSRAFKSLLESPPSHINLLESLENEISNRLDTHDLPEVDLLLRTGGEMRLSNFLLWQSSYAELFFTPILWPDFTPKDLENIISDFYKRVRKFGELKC", "experiment": "Prenyltransferase activity test, conversion of FPP with elongation substrate (MTP phosphate detection assay)", "details": "5 µM E,E-FPP, 200 µM elongation substrate, 50 µM enzyme, room temperature", "procedure": "as §6, §7"}, "[5]": {"biological_target": "T5, EcUPPS (Escherichia coli, UniProt P60472)", "T5 construct": "made in house; host or cells: E. coli", "experiment": "Prenyltransferase activity test, conversion of FPP with elongation substrate (MTP phosphate detection assay)", "details": "5 µM E,E-FPP, 200 µM elongation substrate, 50 µM enzyme, room temperature", "procedure": "as §6, §7"}, "[6]": {"biological_target": "T6, MIUPPS (Micrococcus luteus, UniProt O82827)", "T6 construct": "poly-Histidin-Tag (His6) (N); made in house; host or cells: E. coli BL21 (DE3)", "T6 sequence (O82827 1-249)": "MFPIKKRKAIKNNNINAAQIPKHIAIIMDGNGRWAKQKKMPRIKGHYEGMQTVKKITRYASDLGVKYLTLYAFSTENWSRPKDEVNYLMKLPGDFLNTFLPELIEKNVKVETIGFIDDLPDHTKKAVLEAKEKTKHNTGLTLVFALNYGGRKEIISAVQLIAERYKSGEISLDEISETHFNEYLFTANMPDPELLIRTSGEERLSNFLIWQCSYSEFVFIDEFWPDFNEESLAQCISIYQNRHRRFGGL", "experiment": "Prenyltransferase activity test, conversion of FPP with elongation substrate (MTP phosphate detection assay)", "details": "5 µM E,E-FPP, 200 µM elongation substrate, 50 µM enzyme, room temperature", "procedure": "as §6, §7"}}, "data": [{"molecule": "C=C(Cl)CCOP(=O)(O)OP(=O)(O)O", "note": "[Cl-BPP, 3-Chlor-3-Butenyldiphosphat]", "values": [{"measurement": "kcat", "setting": "[1]", "result": "0,0005 s^-1"}, {"measurement": "kcat", "setting": "[2]", "result": "0,0009 s^-1"}, {"measurement": "Aktivität (Umsetzung von FPP mit Elongationssubstrat)", "setting": "[3]", "result": "höchste Aktivität"}, {"measurement": "Aktivität (Umsetzung von FPP mit Elongationssubstrat)", "setting": "[4]", "result": "im geringeren Maße"}, {"measurement": "Aktivität (Umsetzung von FPP mit Elongationssubstrat)", "setting": "[5]", "result": "höchste Aktivität"}, {"measurement": "Aktivität (Umsetzung von FPP mit Elongationssubstrat)", "setting": "[6]", "result": "im geringeren Maße"}]}]}
